Patent US20220168389A1, “METHODS OF MAKING CHIMERIC ANTIGEN RECEPTOR-EXPRESSING CELLS” (priority 2019, published 2022)

Test system: freshly isolated, quiescent human T cells
Assay: Lentiviral transduction of freshly isolated quiescent (non-activated) T cells, flow cytometry
Type: cell-based
Description: Peripheral blood leukocytes from healthy donors were obtained from the Human Immunology Core. Informed consent was obtained from all participants prior to collection. All methods and experimental procedures were approved by the University of Pennsylvania Institutional Review Board. T cells were purified at the University's Human Immunology Core by negative selection using the RosetteSep T cell enrichment Cocktail. T cells were serum starved in RPMI media containing 10 mM HEPES, 2 mM L-glutamine 100 U/mL penicillin G and 100 μg/mL streptomycin for 2-6 hours and then resuspended at a concentration of 10^7 T cells/mL in X-VIVO 15 (Cambrex, Walkersville, Md.) supplemented with 5% normal human AB serum (Valley Biomedical, Winchester, Va.), 2 mM L-glutamine (Cambrex), 20 mM HEPES (Cambrex), IL7 and IL15 (10 ng/mL, Miltenyi Biotec), and deoxynucleosides (50 μM, Sigma). As the medium was switched to X-VIVO 15, T cells were simultaneously transduced with CD19-BBζ CAR or iRFP lentiviral supernatants for 24 hours.
1×10^6 cells were stained for cell surface markers to analyze T-cell differentiation status. […] Cells were washed with phosphate-buffered saline (PBS) and stained for viability using LIVE/DEAD Fixable Violet (Molecular Probes) for 15 minutes, washed once, and resuspended in fluorescence activated cell sorting (FACS) buffer containing PBS, 1% BSA, and 5 mM EDTA. […] Positively stained cells were differentiated from background using fluorescence-minus-one (FMO) controls. […]
For activated T cells, cells were resuspended at 10^6 T cells/mL in X-VIVO 15 (Cambrex, Walkersville, Md.) supplemented with 5% human AB serum (Valley Biomedical, Winchester, Va.), 2 mM L-glutamine (Cambrex), 20 mM HEPES (Cambrex), IL-7 and IL-15 (10 ng/mL, Miltenyi Biotec). […] Cell volume was also measured with a Multisizer III particle counter (Beckman-Coulter) every other day. […]
T cell differentiation was assessed using the following antibodies: anti-CCR7-FITC (BD Pharmingen); anti-CD45RO-PE, anti-CD8-H7APC (BD Biosciences); anti-CD4-BV510, anti-CD3-BV605, anti-CD14-Pacific Blue (PB), anti-CD19-PB (BioLegend). […]

With deoxynucleosides [dNs] the “increase in transduction efficiency of quiescent T cells” value (50 μM dNs vs cells in medium containing IL-7 and IL-15, iRFP vector (FIG. 2B)) was 3 fold, the “increase in lentiviral transduction of non-activated T cells” value (50 μM dNs, normalized to complete media without dNs, iRFP vector (FIG. 6B)) was about 2 fold and the “transduction efficiency in quiescent T cells” value (serum starvation combined with high concentrations of dNs (FIG. 2B)) was “exceeding 50%”.
